Measured values from patent publication US12358959B2, “Compositions and methods for oligodendrocyte development” (CHILDREN'S MEDICAL CENTER CORPORATION, priority 2016, dated 2025).
“Also recorded” adds a separate entry of the source.

How the values were obtained:
[1] = tested on: cerebellar slices; test: Remyelination of LPC-demyelinated cerebellar slice cultures; assay type: cell-based, mouse; details: Gpr56+/+;Tgm2−/− cerebellar slices, LPC 24 hr, 4 days of remyelination, TG2 20 nM; listed as Recombinant TG2
From the text: FIG. 12D provides composite images created in Image J showing myelinated axons (black) for quantification. FIG. 12E is a graph showing percentage of myelinated axons after remyelination. Remyelination was reduced in cerebellar slices that lacked OPC-derived GPR56. *P=0.0135, paired t-test, N=5 per genotype. FIG. 12F provides representative images of cerebellar slice cultures from P10 Gpr56^+/+; Tgm2^−/− and Gpr56^−/−; Tgm2^−/− mouse cerebella that were demyelinated with LPC for 24 hr followed by 4 days of remyelination in the presence or absence of TG2 (20 nM). Slices were immunostained with NF200 (white) and MBP (light gray); myelinated fibers appear yellow in merged images. Scale bar, 100 μm.
Gpr56^fl/fl;PdgfrαCreER^− and Gpr56^fl/fl;PdgfrαCreER^+ P7 pups were injected with tamoxifen (50 mg kg^−1) for 3 days before the cerebellar harvesting. All cerebella were harvested on P10 and placed in ice-cold Hank's buffer (Fisher Scientific) before being cut into 300 μm thick sagittal sections with a vibratome (Leica Biosystems). Three slices were placed onto inserts (Millicell 0.4 μm, Millipore) in media containing 50% MEM, 25% Horse Serum, 25% Hank's Buffer, 1% GlutaMax, 5 mg/ml Glucose. […] Quantification of myelinated fibers was performed using Image J by subtracting background and applying threshold for both red and green channel, before measuring both myelinated and unmyelinated axon fibers.

[2] = molecular target: T1, GPR56^N (Mus musculus, UniProt Q8K209); test: In vitro biotinylation/proteomics pull-down from mixed glial cell lysate with mass spectrometry; details: peptide sequences specific for binding to GPR56^N
T1 construct: Using the soluble N-terminal fragment of GPR56 (GPR56^N); made in house
T1 sequence (Q8K209 26-382 limits assumed): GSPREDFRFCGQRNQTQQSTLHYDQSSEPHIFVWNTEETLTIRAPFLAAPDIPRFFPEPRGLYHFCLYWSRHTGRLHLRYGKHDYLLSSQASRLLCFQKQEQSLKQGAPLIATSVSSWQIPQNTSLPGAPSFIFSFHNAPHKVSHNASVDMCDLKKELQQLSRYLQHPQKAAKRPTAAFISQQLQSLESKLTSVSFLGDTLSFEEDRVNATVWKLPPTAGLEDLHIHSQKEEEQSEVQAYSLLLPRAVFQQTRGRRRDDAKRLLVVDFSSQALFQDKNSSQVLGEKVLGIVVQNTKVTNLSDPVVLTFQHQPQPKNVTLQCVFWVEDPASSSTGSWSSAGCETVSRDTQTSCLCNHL
From the text: To identify the ligand of GPR56 in OPCs, an in vitro biotinylation/proteomics approach was employed using single-step capture on streptavidin beads to purify the binding partner(s) of GPR56 (FIGS. 2A-2B). Proteins with more than five identified tryptic peptides in the Mass Spectrometry (MS) output from three independent experiments are listed at Table 1.
(§1) GPR56^N and GPR56^Ndel fusions proteins with either mFc or hFc tag were generated as previously described (Luo et al. Proc Natl Acad Sci USA 108, 12925-12930, 2011). BirA enzyme was used to in vitro biotinylate GPR56^N-mFc-biotag protein as previously described (De Laurenzi and Melino Mol Cell Biol 21, 148-155, 2001). Mixed glial cell lysate was incubated with biotinylated GPR56^N protein in lysis buffer [20 mM Hepes (pH 7.3), 150 mM NaCl, and 5 mM MgCl2] with protein inhibitor mixture (Roche Molecular Biochemicals) and 1% Brij 96 (Fluka). Streptavidin beads (Sigma) were used to affinity purify immunocomplexes. GPR56-associated proteins were eluted in 2×SDS loading buffer, subjected to SDS/PAGE. The whole lane was used for MS at the Taplin Biological Mass Spectrometry at Havard Medical School. MS data were searched against the mouse International Protein Index (IPI mouse 339) database using the protein identification software Mascot (v2.2.04, Matrix Sciences) (Luo et al. Proc Natl Acad Sci USA 108, 12925-12930, 2011).
as §1, with “al.,” for “al.”, “(Stacey et al., J” for “(De Laurenzi and Melino Mol Cell”, “Chem 277, 29283-29293, 2002).” for “21, 148-155, 2001).”, “(20” for “[20”, “[pH 7.3],” for “(pH 7.3),”, “MgCl2)” for “MgCl2]”

[3] = tested on: oligodendrocyte precursors (OPCs); test: OPC proliferation in culture with recombinant TGM2, BrdU/PDGFRα double immunostaining; assay type: cell-based, mouse; details: 2 nM recombinant TGM2, 24 hrs
Method: FIG. 14A depicts a TGM2 western blot on acutely isolated microglia, OPCs, astrocytes and oligodendrocytes. β-actin was used as loading control. FIG. 14B depicts representative images of BrdU (white) and PDGFRα (light gray) double immunostaining on OPC cultured for 24 hrs in proliferation media in the presence and absence of 2 nM recombinant TGM2. Scale bar, 100 μm. FIG. 14C depicts quantification of the percentage of BrdU^+ of total PDGFRα^+ OPCs. *P=0.0492, paired t-test, N=3 per genotype. Error bars are means±s.e.m.
To investigate whether TGM2 directly regulates OPC proliferation in a GPR56-dependent manner, OPCs derived from P5 Gpr56^+/− or Gpr56^−/− pups were cultured in the presence or absence of human recombinant TGM2 (FIGS. 15A and 15B) with the presence of BrdU. The cells were double immunostained for PDGFRα and BrdU (FIG. 14B).

Substance: Transglutaminase 2 [TG2]
- Remyelination (percentage of myelinated axons) [1]: rescued remyelination failure; also recorded: promotes remyelination
- Peptide Number (Exp1) ([2]; experiment 1): 19
- Peptide Number (Exp2) ([2]; experiment 2): 20
- Peptide Number (Exp3) ([2]; experiment 3): 17
- OPC proliferation (percentage of BrdU+ of total PDGFRα+ OPCs) ([3]; proliferation media, OPCs printed as Gpr56−/− (first mention; cultures were Gpr56+/− or Gpr56−/−)): significantly increased
- OPC proliferation (percentage of BrdU+ of total PDGFRα+ OPCs) ([3]; Gpr56−/− OPCs (second mention)): attenuated
